Assay results from patent publication US20070015828A1 (Wyeth, priority 2005, published 2007).

What was measured:
Type in all cases: physicochemical
[1] = pH-Solubility; settings: free base
[2] = Hygroscopicity
[3] = Solution Stability in aqueous solutions; settings: room temperature, all aqueous solutions (pH 1.6-10.5)
[4] = Octanol/Water Partitioning Coefficient; settings: @ pH 6

Row | SMILES | pH-Solubility ([1]; Final pH 1.60) | pH-Solubility ([1]; Final pH 7.62) | pH-Solubility ([1]; Final pH 8.21) | pH-Solubility ([1]; Final pH 9.00) | pH-Solubility ([1]; Final pH 10.5) | Hygroscopicity [2] | Hygroscopicity, weight gain ([2]; @ 60% RH) [%] | Hygroscopicity, weight gain ([2]; @ 90% RH, weight gain was lost when returned to 10% RH or 0% RH) | Solution Stability, time stable [3] | Octanol/Water Partitioning Coefficient Coct/Caq [4]
1 | COC1CCC(O)(C(CN(C)C)c2ccc(O)cc2)CC1 (stereo not drawn) [4-[2-dimethylamino-1-(cis-1-hydroxy-4-methoxy-cyclohexyl)-ethyl]-phenol] | Final pH 1.60 >10.71 mg/ml | Final pH 7.62 >10.00 mg/ml | Final pH 8.21 >10.00 mg/ml | Final pH 9.00 7.65 mg/ml | Final pH 10.5 7.65 mg/ml | Non-hygroscopic | 0.44 | 60% RH, 1.2% weight gain @ 90% RH, | The compound was stable for at least 72 hours | Coct/Caq @ pH 6 = 6.857
2 | CN(C)CC(c1ccc(O)cc1)[C@]1(O)CC[C@@H](O)CC1.O=C(O)CCC(=O)O (stereo partly drawn) [Succinate salt, 1-[2-dimethylamino-1-(4-phenol)ethyl]-cis-1,4-cyclohexandiol succinate] | – | – | – | – | – | hygroscopic | – | – | – | –
